Results as given in patent US9474780B2, “GIP and GLP-1 co-agonist compounds” (Eli Lilly and Company, priority 2015, dated 2016).
Numbered stars: 1 amine (or outer) side, 2 acyl side, 3 side chain; on linkers, the order of the positions; unused ones are H or OH. Square brackets hold non-standard residues; d marks the D form. Side chains are listed from the residue outwards. Peptide text beside a SMILES is read from it. * marks the point of attachment. C20 diacid = O=C(O)CCCCCCCCCCCCCCCCCCC(=O)*; γGlu = O=C(O)[C@H](CCC(=O)[*:2])N[*:1]; 1Nal = N[C@@H](Cc1cccc2ccccc12)C(=O)O; AEEA = NCCOCCOCC(=O)O; Aib = CC(C)(N)C(=O)O

Tests used:
human GLP-1R [1] = biological target: T1, human GLP-1R (Homo sapiens, UniProt P43220); test: Functional hGLP-1R cAMP assay in HEK-293 clonal cells; type: cell-based; settings: HEK293; percent of maximal response of hGLP-1(7-36)NH2
T1 construct: expressed in transfected cells; host or cells: 293HEK, Hygromycin-selected; crude plasma membranes
Description: (§1) After an incubation of 60 minutes at room temperature, the resulting increase in intracellular cAMP is quantitatively determined using the CisBio cAMP Dynamic 2 HTRF Assay Kit (Bedford, Mass.). Briefly, cAMP levels within the cell are detected by adding the cAMP-d2 conjugate in cell lysis buffer (20 μl) followed by the antibody anti-cAMP-Eu^3+-Cryptate, also in cell lysis buffer (20 μl). The resulting competitive assay is incubated for at least 60 minutes at room temperature, then detected using a PerkinElmer Envision® instrument with excitation at 320 nm and emission at 665 nm and 620 nm Envision units (emission at 665 nm/620 nm*10,000) are inversely proportional to the amount of cAMP present and are converted to nM cAMP per well using a cAMP standard curve. […] A relative EC50 value and percent top (Emax) is derived by non-linear regression analysis using the percent maximal response versus the concentration of the compound of the present invention, fitted to a four-parameter logistic equation.

Human GCGR = Human GCGR (Homo sapiens, UniProt P47871); test: Functional hGCGR cAMP assay in HEK-293 clonal cells
[2] = Pharmacokinetics in cynomolgus monkeys; type: in vivo; settings: cynomolgus monkey, plasma, single SC 0.2 mg/kg, male monkeys, n = 2; for AUC(0-inf): read-out: Mean AUC0-inf; for half-life: read-out: Mean T1/2 (converted); for Tmax: read-out: Mean Tmax
Description: The compounds are administered by a single intravenous or subcutaneous dose (0.2 mg/kg) in 20 mM citrate buffer (pH 7.0) at a volume of 0.21 ml/kg. Blood is collected from each animal at 2, 4, 8, 12, 24, 48, 72, 96, 120, 144, 168, 204, 240, and 312 hours post-dosage. The plasma concentrations of compounds of the present invention are determined by a LC/MS method. Briefly, a compound of the present invention is extracted from 100% Monkey plasma sample (50 μl) diluted with 1×PBS (150 μl) and mixed with N-butanol (400 μl). Three distinct liquid layers are formed with the compound located in the top layer. A volume of 200 μl is transferred to a v-bottom 96-well plate, dried down using heated Nitrogen gas and reconstituted with 100 μl of 30% acetonitrile/0.1% formic acid. 20 μl of the reconstituted sample is injected onto a Supelco Analytical Discovery bio wide C5 3 μm column. The column effluent is directed into a Thermo Q-Exactive mass spectrometer for detection and quantitation.

human GIP-R = biological target: T2, human GIP-R (Homo sapiens, UniProt P48546); test: Functional hGIP-R cAMP assay in HEK-293 clonal cells; settings: HEK293, read-out: Human GIP-R Emax
T2 sequence (P48546 22-466): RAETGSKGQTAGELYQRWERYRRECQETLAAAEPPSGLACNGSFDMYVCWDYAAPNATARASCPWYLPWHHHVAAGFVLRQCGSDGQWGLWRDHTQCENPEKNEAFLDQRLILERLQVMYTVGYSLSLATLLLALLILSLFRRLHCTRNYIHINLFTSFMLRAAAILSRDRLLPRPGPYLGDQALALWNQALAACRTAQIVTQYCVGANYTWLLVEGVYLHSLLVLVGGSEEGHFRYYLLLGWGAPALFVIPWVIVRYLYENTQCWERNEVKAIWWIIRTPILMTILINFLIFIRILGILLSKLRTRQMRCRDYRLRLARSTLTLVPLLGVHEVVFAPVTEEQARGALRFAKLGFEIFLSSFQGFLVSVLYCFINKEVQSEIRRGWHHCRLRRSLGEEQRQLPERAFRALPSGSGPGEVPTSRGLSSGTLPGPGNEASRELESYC
Description: as §1

[3] = Weight loss, body composition and hepatic steatosis in DIO mice; type: in vivo, mouse; settings: for Blood Glucose: Day 15
Description: The effects on weight loss, body composition and hepatic steatosis in DIO mice for compounds of the present invention are evaluated in C57/BL6 DIO mice. […] Animals are individually housed in a temperature-controlled (24° C.) facility with a 12 hour light/dark cycle (lights on 22:00), and free access to food and water. […] Daily body weight and food intake are measured throughout the study. Absolute changes in body weight are calculated by subtracting the body weight of the same animal prior to the first injection of compound. […] On Day 15, blood glucose is measured with Accu-Chek glucometer (Roche) from tail vein blood and then animals may be sacrificed and livers removed and frozen. Liver triglycerides, determined from homogenates of livers collected at sacrifice, and plasma cholesterol are measured on a Hitachi Modular P clinical analyzer. Statistical comparisons between groups are done using one-way ANOVA followed by Dunnett's multiple comparison test. The ED50 for weight loss lowering is determined in GraphPad Prism using the non-linear fit tool.

[4] = Rat in vivo insulin secretion following intravenous glucose (IVGTT); settings: s.c. 16 hour prior to glucose
Description: Male Wistar rats (Harlan Labs, Indianapolis, Ind.) are randomized by body weight and dosed 1.5 ml/kg s.c. 16 hour prior to glucose administration and then fasted. Doses are vehicle, 0.1, 0.3, 1, 3 and 10 nmol/kg. Animals are weighed, and then anesthetized with sodium pentobarbital (Nembutal Sodium solution; Ovation Pharmaceuticals) dosed i.p. (65 mg/kg, 30 mg/ml). A time zero blood sample is collected into EDTA tubes after which glucose is administered ([…], 5 ml/kg). Blood samples are collected at 2, 4, 6, 10, 20, and 30 minutes post glucose. Plasma glucose levels are determined using a Hitachi analyzer (Roche) and plasma insulin is measured by the MSD insulin assay (Meso Scale, Gaithersburg, Md.).

human GLP-1R [5] = biological target: T1, human GLP-1R; type: binding

Human GCGR, sequence (P47871 26-477): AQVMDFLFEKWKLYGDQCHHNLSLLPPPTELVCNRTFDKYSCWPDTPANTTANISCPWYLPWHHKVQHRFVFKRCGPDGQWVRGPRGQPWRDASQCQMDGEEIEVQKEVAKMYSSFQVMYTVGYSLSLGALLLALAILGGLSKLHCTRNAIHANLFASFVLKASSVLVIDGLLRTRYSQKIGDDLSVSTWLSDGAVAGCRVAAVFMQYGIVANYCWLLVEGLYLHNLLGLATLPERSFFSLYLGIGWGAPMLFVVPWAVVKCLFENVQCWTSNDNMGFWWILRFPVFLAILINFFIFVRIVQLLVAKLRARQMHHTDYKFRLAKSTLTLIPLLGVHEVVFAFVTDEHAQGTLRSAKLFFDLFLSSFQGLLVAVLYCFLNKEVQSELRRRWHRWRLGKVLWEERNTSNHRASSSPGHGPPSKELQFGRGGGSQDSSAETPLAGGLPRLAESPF
T1 sequence (P43220 24-463): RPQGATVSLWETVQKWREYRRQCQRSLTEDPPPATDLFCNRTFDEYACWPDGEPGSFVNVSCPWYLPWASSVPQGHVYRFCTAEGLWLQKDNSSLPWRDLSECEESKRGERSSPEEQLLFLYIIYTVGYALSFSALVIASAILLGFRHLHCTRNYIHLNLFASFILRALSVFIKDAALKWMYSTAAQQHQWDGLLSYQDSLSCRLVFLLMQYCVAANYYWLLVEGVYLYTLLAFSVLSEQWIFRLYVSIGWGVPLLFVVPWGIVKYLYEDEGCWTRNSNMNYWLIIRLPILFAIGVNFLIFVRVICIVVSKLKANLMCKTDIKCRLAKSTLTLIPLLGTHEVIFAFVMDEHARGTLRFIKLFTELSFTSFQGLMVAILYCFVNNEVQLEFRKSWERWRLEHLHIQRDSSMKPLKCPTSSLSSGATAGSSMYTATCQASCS

## CC[C@H](C)[C@H](NC(=O)[C@H](CC(C)C)NC(=O)[C@H](Cc1c[nH]c2ccccc12)NC(=O)[C@H](CCC(N)=O)NC(=O)[C@@H](NC(=O)[C@H](Cc1cccc2ccccc12)NC(=O)[C@H](C)NC(=O)[C@H](CCCCNC(=O)COCCOCCNC(=O)COCCOCCNC(=O)CC[C@H](NC(=O)CC[C@H](NC(=O)CCCCCCCCCCCCCCCCCCC(=O)O)C(=O)O)C(=O)O)NC(=O)[C@H](CCC(N)=O)NC(=O)[C@H](C)NC(=O)[C@@H](NC(=O)[C@H](CCCCN)NC(=O)[C@H](CC(=O)O)NC(=O)[C@H](CC(C)C)NC(=O)C(C)(C)NC(=O)[C@@H](NC(=O)[C@H](CO)NC(=O)[C@H](Cc1ccc(O)cc1)NC(=O)[C@H](CC(=O)O)NC(=O)[C@H](CO)NC(=O)[C@@H](NC(=O)[C@H](Cc1ccccc1)NC(=O)[C@@H](NC(=O)CNC(=O)[C@H](CCC(=O)O)NC(=O)C(C)(C)NC(=O)[C@@H](N)Cc1ccc(O)cc1)[C@@H](C)O)[C@@H](C)O)[C@@H](C)CC)[C@@H](C)CC)C(C)C)C(=O)N[C@@H](C)C(=O)NCC(=O)NCC(=O)N1CCC[C@H]1C(=O)N[C@@H](CO)C(=O)N[C@@H](CO)C(=O)NCC(=O)N[C@@H](C)C(=O)N1CCC[C@H]1C(=O)N1CCC[C@H]1C(=O)N1CCC[C@H]1C(=O)N[C@@H](CO)C(N)=O [Example 2] (H-Y[Aib]EGTFTSDYSI[Aib]LDKIAQK([AEEA-AEEA-γGlu-γGlu-C20 diacid])A[1Nal]VQWLIAGGPSSGAPPPS-NH2)
Human GLP-1R [1]
  Emax: 98.2 ± 5.5%
Human GCGR
  EC50: > 1000 nM
[2]
  CL/F: 1.2 mL/h/kg
  Cmax: 2100 ng/mL
  AUC(0-inf): 173 µg·h/mL
  half-life: 2580 min
  Tmax: 24 h
Human GIP-R
  Emax: 94.7 ± 2%

## CC[C@H](C)[C@H](NC(=O)[C@H](CC(C)C)NC(=O)[C@H](Cc1c[nH]c2ccccc12)NC(=O)[C@H](CCC(N)=O)NC(=O)[C@@H](NC(=O)[C@H](Cc1cccc2ccccc12)NC(=O)[C@H](C)NC(=O)[C@H](CCCCNC(=O)COCCOCCNC(=O)COCCOCCNC(=O)CC[C@H](NC(=O)CCCCCCCCCCCCCCCCCCC(=O)O)C(=O)O)NC(=O)[C@H](CCC(N)=O)NC(=O)[C@H](C)NC(=O)[C@@H](NC(=O)[C@H](CCCCN)NC(=O)[C@H](CC(=O)O)NC(=O)[C@H](CC(C)C)NC(=O)C(C)(C)NC(=O)[C@@H](NC(=O)[C@H](CO)NC(=O)[C@H](Cc1ccc(O)cc1)NC(=O)[C@H](CC(=O)O)NC(=O)[C@H](CO)NC(=O)[C@@H](NC(=O)[C@H](Cc1ccccc1)NC(=O)[C@@H](NC(=O)CNC(=O)[C@H](CCC(=O)O)NC(=O)C(C)(C)NC(=O)[C@@H](N)Cc1ccc(O)cc1)[C@@H](C)O)[C@@H](C)O)[C@@H](C)CC)[C@@H](C)CC)C(C)C)C(=O)N[C@@H](C)C(=O)NCC(=O)NCC(=O)N1CCC[C@H]1C(=O)N[C@@H](CO)C(=O)N[C@@H](CO)C(=O)NCC(=O)N[C@@H](C)C(=O)N1CCC[C@H]1C(=O)N1CCC[C@H]1C(=O)N1CCC[C@H]1C(=O)N[C@@H](CO)C(N)=O [Example 8] (H-Y[Aib]EGTFTSDYSI[Aib]LDKIAQK([AEEA-AEEA-γGlu-C20 diacid])A[1Nal]VQWLIAGGPSSGAPPPS-NH2)
[3]; Table 10, 10 nmol/kg
  % Change from starting body weight: −17.13 ± 0.81 %
  % Change from starting fat mass: −34.20 ± 1.62 %
[3]; Table 10, 30 nmol/kg
  % Change from starting body weight: −25.27 ± 0.70 %
  % Change from starting fat mass: −54.24 ± 2.35 %
[3]; Table 10, 100 nmol/kg
  % Change from starting body weight: −29.91 ± 2.03 %
  % Change from starting fat mass: −65.23 ± 6.69 %
[3]; Table 13, 10 nmol/kg
  Plasma Cholesterol: 158.8 ± 7.57 mg/dL
  Blood Glucose: 114.7 ± 4.61 mg/dL
[3]; Table 13, 30 nmol/kg
  Plasma Cholesterol: 139.4 ± 6.83 mg/dL
  Blood Glucose: 117.1 ± 8.26 mg/dL
[3]; Table 13, 100 nmol/kg
  Plasma Cholesterol: 127.8 ± 6.34 mg/dL
  Blood Glucose: 125.4 ± 6.30 mg/dL
[4]
  % max increase of insulin AUC: 324 +/− 30%
  ED50 for insulin, rat IVGTT: 6.13 nmol/kg
Human GLP-1R [5]; normalized by factor 4.53 from native GIP and GLP-1 binding
  Molar ratio of hGLP-1R/hGIP-R: 0.99
Human GLP-1R [5]; ratio of Ki values
  Absolute ratio of hGLP-1R/hGIP-R: 4.5
Human GLP-1R [1]
  Emax: 88.4 ± 2.3%
Human GCGR
  EC50: > 1000 nM
[2]
  CL/F: 4.7 mL/h/kg
  Cmax: 1000 ng/mL
  AUC(0-inf): 42.8 µg·h/mL
  half-life: 1380 min
  Tmax: 10 h
Human GIP-R
  Emax: 108 ± 4%

## CC[C@H](C)[C@H](NC(=O)[C@H](CC(C)C)NC(=O)[C@H](Cc1c[nH]c2ccccc12)NC(=O)[C@H](CCC(N)=O)NC(=O)[C@@H](NC(=O)[C@H](Cc1ccccc1)NC(=O)[C@H](C)NC(=O)[C@H](CCCCNC(=O)COCCOCCNC(=O)COCCOCCNC(=O)CC[C@H](NC(=O)CC[C@H](NC(=O)CCCCCCCCCCCCCCCCCCC(=O)O)C(=O)O)C(=O)O)NC(=O)[C@H](CCC(N)=O)NC(=O)[C@H](C)NC(=O)[C@@H](NC(=O)[C@H](CCCCN)NC(=O)[C@H](CC(=O)O)NC(=O)[C@H](CC(C)C)NC(=O)C(C)(C)NC(=O)[C@@H](NC(=O)[C@H](CO)NC(=O)[C@H](Cc1ccc(O)cc1)NC(=O)[C@H](CC(=O)O)NC(=O)[C@H](CO)NC(=O)[C@@H](NC(=O)[C@H](Cc1ccccc1)NC(=O)[C@@H](NC(=O)CNC(=O)[C@H](CCC(=O)O)NC(=O)C(C)(C)NC(=O)[C@@H](N)Cc1ccc(O)cc1)[C@@H](C)O)[C@@H](C)O)[C@@H](C)CC)[C@@H](C)CC)C(C)C)C(=O)N[C@@H](C)C(=O)NCC(=O)NCC(=O)N1CCC[C@H]1C(=O)N[C@@H](CO)C(=O)N[C@@H](CO)C(=O)NCC(=O)N[C@@H](C)C(=O)N1CCC[C@H]1C(=O)N1CCC[C@H]1C(=O)N1CCC[C@H]1C(=O)N[C@@H](CO)C(N)=O [Example 5]
[3]; Table 9, 10 nmol/kg
  % Change from starting body weight: −23.42 ± 1.43 %
  % Change from starting fat mass: −51.28 ± 1.89 %
[3]; Table 9, 30 nmol/kg
  % Change from starting body weight: −26.84 ± 3.14 %
  % Change from starting fat mass: −62.77 ± 5.49 %
[3]; Table 9, 100 nmol/kg
  % Change from starting body weight: −37.86 ± 2.25 %
  % Change from starting fat mass: −81.08 ± 1.68 %
[3]; Table 12, 10 nmol/kg
  Liver Triglycerides: 48.30 ± 8.14 mg/g tissue
  Plasma Cholesterol: 126.6 ± 9.67 mg/dL
  Blood Glucose: 111.00 ± 6.56 mg/dL
[3]; Table 12, 30 nmol/kg
  Liver Triglycerides: 39.60 ± 4.71 mg/g tissue
  Plasma Cholesterol: 108.2 ± 13.84 mg/dL
  Blood Glucose: 104.5 ± 5.30 mg/dL
[3]; Table 12, 100 nmol/kg
  Liver Triglycerides: 67.96 ± 13.53 mg/g tissue
  Plasma Cholesterol: 108.6 ± 4.83 mg/dL
  Blood Glucose: 105.3 ± 6.16 mg/dL
[4]
  % max increase of insulin AUC: 349 +/− 39%
  ED50 for insulin, rat IVGTT: 1.02 nmol/kg
Human GLP-1R [1]
  Emax: 105 ± 4%
Human GCGR
  EC50: > 1000 nM
Human GIP-R
  Emax: 105 ± 2%
